Source: patent US20220213126A1, “SMALL MOLECULE AUTOPHAGY INDUCERS FOR THE TREATMENT OF CANCER AND NEURODEGENERATIVE DISEASES” (John Wayne Cancer Institute, priority 2019, published 2022)
Where “and” joins values, the source holds several entries; their conditions need not be identical. Identical values can stand only once. Like-named read-outs stand apart in the source and are kept apart here.

Key:
[1] = tested on: polyQ-expressing C. elegans; test: PolyQ aggregation in C. elegans Huntington's disease model; assay type: in vivo; conditions: 1 μM, 72 hours
Experimental: Synchronized populations of polyQ-expressing C. elegans were grown for 72 hours on media containing 1 μM VMY-BC-1. PolyQ aggegrative vacuoles were detected using confocal microscopy. PolyQ aggregations were decreased compared to vehicle (DMSO) (FIG. 21A). Synchronized populations of wild-type worms were grown on media containing VMY-BC-1 from 0.1 to 10 μM.

[2] = Metabolic stability in human liver microsomes; assay type: in vitro ADME; conditions: for microsomal CLint: human, human liver microsomes
Caco-2 permeability = assay type: in vitro ADME; conditions: human, Caco-2
Caco-2 cell model = test: Caco-2 permeability; assay type: in vitro ADME
[3] = Pharmacokinetics of BC-4 and BC-5 in mouse plasma and brain; assay type: in vivo; conditions: Balb/c mice, single oral dose 5 mg/kg; for Cmax: read-out: Cmax; for Tmax: read-out: Tmax (converted); for half-life: read-out: T½
Experimental: Pharmacokinetics of BC-4 and BC-5 were compared to BC-1. Pharmacokinetics were assessed in Balb/c mice administered a single oral dose of 5 mg/kg of the indicated compound (Tables 11 and 12).

CYP1A2 = biological target: T1, CYP1A2 (Homo sapiens, UniProt P05177); test: CYP inhibition in pooled human liver microsomes; assay type: in vitro ADME
T1 construct: from tissue; host or cells: pooled human liver microsomes

[4] = Mouse plasma protein binding (in vitro binding study); assay type: in vitro ADME, CD1 mouse
Experimental: Free drug fraction in brain and plasma compartment was determined in vitro (Table 7). Brain to plasma (B/P) ratio was also determined in vivo (Table 8).

[5] = tested on: MDA-MB-231 tumor xenografts; test: MDA-MB-231 tumor xenograft efficacy; assay type: in vivo, athymic nude mice
Experimental: To evaluate the anti-tumor efficacy of VMY-BC-1 in vivo, MDA-MB-231 tumor xenografts were established in the flanks of athymic nude mice. 5×10^6 MDA-MB-231 TNBC cells in 1×HBSS with 1:1 Matrigel® were implanted subcutaneously in the flank of 5-6 week old female athymic nude mice (CrTac:Ncr-Foxn1^nu; Taconic Biosciences, India). Mice (n=8) were treated with vehicle (2% (v/v) Tween® 80+98% (v/v) of 0.5% (w/v) hydroxypropyl methylcellulose (HPMC) in water) or VMY-BC-1 75 mg/kg PO daily for 14 days. The dose volume was 10 mL/kg. Tumor volume, tumor growth inhibition (TGI), body weight, and clinical signs were monitored. Tumor growth was measured twice weekly using a digital Vernier caliper. Tumor volume was calculated as [length×width^2]/2. TGI was calculated as:
% TGI={(TV ControlFinal−TV ControlInitial)−(TV TreatedFinal−TV TreatedInitial)}×100
At the end of the study, brain and plasma samples were collected for drug concentration. Tumor tissues were collected for immunohistochemistry, Western blot, and bioanalysis. Statistical analysis of tumor growth in the control and treated groups was performed by Student's T test using GraphPad Prism (Ver. 5.03).

ULK1 = test: Western blot of autophagy proteins in MDA-MB-231 cells; assay type: cell-based; conditions: 10 μM, MDA-MB-231, different time points
Experimental: FIG. 6 is a Western blot of autophagy proteins in TNBC cells treated with vehicle (control), VMY-BC-1, or Rapamycin. Western blot is shown for p-ULK1, LC3 A/B, and cleaved PARP.
To identify the functional target of VMY-BC-1, preliminary cell viability assays were carried out using siRNA to knock down each of the 10 identified binding proteins. […] Considering that that low ULK1 expression is associated with TNBC disease progression (Tang et al., Breast Cancer Res. Treat. 134:549-560, 2012) and autophagy controls the level of various DNA repair and checkpoint proteins in the DNA damage response pathway (Czarny et al., Int. J. Mol. Sci. 16:2641-2662, 2015; Gomes et al., Int. J. Mol. Sci. 18:2351, 2017), ULK1 activity in response to VMY-BC-1 was investigated. Protein extracts were made from MDA-MB-231 cells treated with vehicle control, VMY-BC-1 (10 μM), and Rapamycin (200 nM) at different time points.

U87 MG tumor xenografts = test: U87 GBM tumor xenograft efficacy; assay type: in vivo, SCID mice
Experimental: To evaluate the anti-tumor efficacy of VMY-BC-1 in vivo, GBM tumor xenografts were established in the flanks of SCID mice. 5×10^6 U87 MG (ATCC HTB-14™) cells in 1×HBSS with 1:1 Matrigel® were implanted subcutaneously in the flank of 5-6 week old female SCID mice (C.B-lgh-1b/GbmsTac-Prkdc^scid-Lyst^bg N7; Taconic Biosciences, India). Mice (n=8) were treated with vehicle (2% (v/v) Tween® 80+98% (v/v) of 0.5% (w/v) hydroxypropyl methylcellulose (HPMC) in water) or VMY-BC-1 75 mg/kg PO daily for 14 days. The dose volume was 10 mL/kg. Tumor volume, tumor growth inhibition (TGI), body weight, and clinical signs were monitored as described in Example 5.

[6] = mouse, brain, read-out: Brain level, Mean (4) ± SE
[7] = mouse, plasma, read-out: Plasma level, Mean (4) ± SE

T1 sequence (P05177 whole entry): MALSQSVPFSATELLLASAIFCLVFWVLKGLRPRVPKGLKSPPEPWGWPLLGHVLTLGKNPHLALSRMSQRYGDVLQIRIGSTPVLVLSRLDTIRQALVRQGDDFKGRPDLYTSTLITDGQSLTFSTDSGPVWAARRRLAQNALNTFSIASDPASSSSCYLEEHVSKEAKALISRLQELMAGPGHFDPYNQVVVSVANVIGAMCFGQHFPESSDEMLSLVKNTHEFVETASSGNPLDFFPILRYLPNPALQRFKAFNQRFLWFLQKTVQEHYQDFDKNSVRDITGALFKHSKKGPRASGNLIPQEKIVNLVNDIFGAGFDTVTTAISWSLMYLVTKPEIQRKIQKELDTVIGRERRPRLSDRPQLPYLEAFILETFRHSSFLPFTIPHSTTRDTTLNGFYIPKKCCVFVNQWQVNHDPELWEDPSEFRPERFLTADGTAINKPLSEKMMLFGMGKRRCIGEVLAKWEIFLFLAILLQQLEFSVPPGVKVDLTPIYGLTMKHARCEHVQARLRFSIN

SMILES: COc1ccc(/C=C/c2cc(OC)cc(B(O)O)c2)cc1 [VMY-BC-1]
- PolyQ aggregations vs vehicle (DMSO) [1]: decreased
- Remaining at the end of incubation in human liver microsomes ([2]; 30 min incubation): 40%
- microsomal CLint ([2]; Table 3, read-out: Metabolic stability in human liver microsome (CLint)): 41.3 µL/min/mg
- microsomal CLint ([2]; read-out: Intrinsic clearance in human liver microsomes): 43 µL/min/mg
- efflux ratio (Caco-2 permeability): 0.4
- Papp A→B (Caco-2 permeability; A-B): 51 ×10⁻⁶ cm/s
- Papp B→A (Caco-2 permeability; B-A): 20 ×10⁻⁶ cm/s
- Permeability in Caco-2 cell model (Caco-2 cell model): high permeability
- Brain level, Mean (4) ± SE ([3]; 0 min): BQL
- Plasma level, Mean (4) ± SE ([3]; 0 min): BQL
- Brain level, Mean (4) ± SE ([3]; 360 min): BQL
- Plasma level, Mean (4) ± SE ([3]; 360 min): BQL
- Brain level, Mean (4) ± SE ([3]; 900 min): BQL
- Plasma level, Mean (4) ± SE ([3]; 900 min): BQL
- Brain level, Mean (4) ± SE ([3]; 1440 min): BQL
- Plasma level, Mean (4) ± SE ([3]; 1440 min): BQL
- terminal elimination rate constant (lambda z) ([3]; Brain): 0.0156 min⁻¹
- terminal elimination rate constant (lambda z) ([3]; Plasma): 0.0157 min⁻¹
- concentration at 30 min [3, 6]: 1560 ± 237 ng/g
- concentration at 60 min [3, 6]: 1400 ± 211 ng/g
- concentration at 180 min [3, 6]: 169 ± 58 ng/g
- concentration at 30 min [3, 7]: 578 ± 55 ng/mL
- concentration at 60 min [3, 7]: 470 ± 61 ng/mL
- concentration at 180 min [3, 7]: 60 ± 48 ng/mL
- Cmax ([3]; mouse, Brain): 1560 ng/g
- Tmax ([3]; mouse, Brain): 30 min
- half-life ([3]; mouse, Brain): 44.3 min
- AUC(0-inf) ([3]; mouse, Plasma): 865 ng·h/mL
- AUC(0-t) ([3]; mouse, Plasma, read-out: AUC(0-t) (converted)): 803 ng·h/mL
- Cmax ([3]; mouse, Plasma): 578 ng/mL
- Tmax ([3]; mouse, Plasma): 30 min
- half-life ([3]; mouse, Plasma): 44 min
- IC50 (CYP1A2): 5 µM and 4.7 µM
- recovery ([4]; CD1, mouse, mouse plasma): 89.3%
- fraction unbound ([4]; CD1, mouse, plasma, Table 3): 0.265
- Plasma protein binding ([4]; CD1 mouse plasma): moderate plasma protein binding
- Bound (%) ([4]; Mouse Plasma): 73.48%
- fu (%) ([4]; Mouse Plasma): 26.52%
- Body weight ([5]; 75 mg/kg PO daily for 14 days): without any apparent change in body weight
- Tumor growth inhibition ([5]; 75 mg/kg PO daily for 14 days): approximately 30%
- Apoptosis by TUNEL staining ([5]; tumor tissue, 75 mg/kg PO): significant increase in apoptosis
- Reduction in Ki67 proliferation marker vs control ([5]; tumor tissue, 75 mg/kg PO): 50%
- Phospho-ULK1 and LC3 protein expression in tumors ([5]; tumor tissue, 24 hours after treatment): upregulated
- Autophagy proteins and phosphorylation of ULK1 and LC3 A/B (Western blot) (ULK1): increasing amounts of autophagy proteins over time as well as increased phosphorylation of ULK1 and LC3 A/B
- Treatment-related adverse effects (body weight and clinical signs) (U87 MG tumor xenografts; 75 mg/kg once daily oral, 14 days): No treatment-related adverse effects were observed
- Tumor growth inhibition (U87 MG tumor xenografts; 75 mg/kg once daily oral, end of 2 weeks): 32%
- Drug levels in tumor vs plasma (U87 MG tumor xenografts; U87 xenograft mice, 75 mg/kg): higher VMY-BC-1 drug levels in tumor than in plasma
- Apoptosis by TUNEL staining (U87 MG tumor xenografts; tumor tissue, 75 mg/kg): significant increase in apoptosis
- Reduction in Ki67 proliferation marker vs control (U87 MG tumor xenografts; tumor tissue, 75 mg/kg): 51%
